In PubChem BioAssay AID2305 (GlaxoSmithKline (GSK), 2010):

Each compound was assayed on P. falciparum 3D7 growth, pLDH absorbance (assay: P. falciparum 3D7 growth inhibition, dose response, strain 3D7 (AID 2305)).

SMILES | IC50
CC(=O)Nc1ccc(CN2CCCN(c3cc(NC(=O)c4cccc(C)c4)ccn3)CC2)cc1 | 860 nM
CNCCNCc1cccc(-c2ccc(-c3nc4c(C)cccc4[nH]3)s2)c1 | 950 nM
CC(C)CNCc1ccc(-c2cccc(CN(C(=O)NCCc3ccccc3)C3CCN(Cc4ccccc4)CC3)c2)cc1 | 580 nM
CCCCCCOc1ccccc1C(=O)NCCOc1ccc(Cl)cc1 | 1210 nM
CCN(CCNS(C)(=O)=O)c1ccc(N)c(C)c1 | 880 nM
Cc1cc(N(C)C)nc(Nc2ccc(NC(=O)c3ccc(F)cc3)cc2)n1 | 710 nM
FC(F)(F)c1cccc(CNC2CCN(CC3CCCCC3)CC2)c1 | 580 nM
O=C(/C=C/c1ccc(Cl)c(Cl)c1)NCCCCCN1CCC(NC(=O)c2ccc(F)cc2)CC1 | 710 nM
Cc1cc(N2CCOCC2)nc2ccc(NC(=O)c3ccc(Cl)c([N+](=O)[O-])c3)cc12 | 1030 nM
CC(=O)Nc1ccc(C(=O)Nc2cccc(-c3ccc(-c4nc5ccc(C(F)(F)F)cc5[nH]4)cc3)c2)cn1 | 230 nM
CCCCCCNc1cc(C)nc(/N=C(\N)Nc2cccc(C(F)(F)F)c2)n1 | 740 nM
CN(C)Cc1ccc2cc(NC(=O)c3ccc(-c4ccc(Cl)cc4)cc3)ccc2n1 | 850 nM
Cc1[nH]c(C)c(-c2ccc(Oc3cccc(Cl)c3)cc2)c(=O)c1Br | 30 nM
Fc1ccc2nc(-c3cccc(-c4ccc(CNCCc5ccncc5)cc4)c3)[nH]c2c1 | 110 nM
Cc1cc(NN=Cc2cccc(F)c2)c2ccc(F)cc2n1 | 230 nM
CCCCCC(C)C(C)c1cc(OC(N)=O)c2c(c1)OC(C)(C)C=C2c1ccncc1 (centres undefined) | 900 nM
CCCCCN1CCCCC(NS(=O)(=O)c2ccc(C(=O)Nc3cccc(C(F)(F)F)c3)cc2)C1 (centres undefined) | 750 nM
O=C(NCc1cccc(F)c1)Nc1cccc(-c2cccc(-c3nc4ccccc4[nH]3)c2)c1 | 390 nM
CCC(C)c1ccc(O)c(NC(=O)c2cncc(Br)c2)c1 (centres undefined) | 800 nM
Cc1ccc(C)c(S(=O)(=O)NCC2CCN(Cc3ccc(O)cc3)CC2)c1 | 980 nM
Cc1cc(N)c2cc(NC(=O)c3cc(C(F)(F)F)cc(C(F)(F)F)c3)ccc2n1 | 90 nM
CC1(CCCCN2CCC(Oc3ccc(F)cc3F)CC2)C(=O)Nc2ccccc21 (centres undefined) | 760 nM
O=c1cc(NCCC(CNCc2cc3ccccc3o2)NCc2cc(Br)cc(Br)c2)[nH]c2ccccc12 (centres undefined) | 1210 nM
O=C(NCc1cccc(OC(F)(F)F)c1)c1cnc2c(c1)nc(-c1cnc(-c3ccccc3)[nH]1)n2CCc1cnc[nH]1 | 680 nM
CCC(C)NS(=O)(=O)c1ccc2nc(Nc3ccc(C)c(Cl)c3)n(C3CCCCC3)c2c1 (centres undefined) | 510 nM

SMILES | IC50
Cc1cc(NCc2ccccc2)nc(NCc2ccccc2)n1 | 970 nM
COc1ccc2nc(C)cc(NN=Cc3cc(C)ccc3O)c2c1 | 140 nM
CC(C)CNCc1ccc(-c2cccc(CNC3CCN(Cc4ccccc4)CC3)c2)cc1 | 240 nM
CC(C)CN1CCCN(Cc2cccc(NC(=O)c3ccc(Cl)c(Cl)c3)c2)CC1 | 890 nM
Cc1cccc2[nH]c(-c3ccc(-c4ccc(CN5CCC(CO)CC5)cc4)s3)nc12 | 810 nM
COc1cc(NC(=O)N2CCc3ccc(OCCC4CCCN4C)cc32)cc(C(F)(F)F)c1 (centres undefined) | 710 nM
CCCCCCCN1CC[C@@H](CCCc2ccnc3ccc(OC)cc23)[C@@H](CNC)C1 | 210 nM
CC(=O)Nc1cccc(C(=O)Nc2cccc(-c3ccc(-c4nc5c(C)cccc5[nH]4)s3)c2)c1 | 770 nM
NS(=O)(=O)c1cncc(-c2ccc3nccc(-c4cn[nH]c4)c3n2)c1 | 530 nM
COc1ccc(Cl)cc1N1CCN(CCCNC(=O)c2ccc(-c3nc4cc(Cl)c(F)cc4[nH]3)c(F)c2)CC1 | 1110 nM
CC(=NN=C(N)N)c1ccc2c(ccc3ccccc32)c1 | 830 nM
Nc1ccc(-c2ccc(NC(=O)Nc3ccccc3)cc2)cn1 | 920 nM
Cc1cc(C)cc(OCC(O)CN(Cc2cc(Cl)cc(Cl)c2)C(=O)Nc2ccc(Cl)cc2)c1 (centres undefined) | 810 nM
CN(C)Cc1ccc(-c2ccc3c(Nc4ccc(Cl)cc4F)ccnc3c2)o1 | 240 nM
COc1c(C2CCN(CCCCNC(=O)c3oc(-c4ccc(Cl)cc4)cc3CO)CC2)ccc2c1CCCC2 | 370 nM
CCCC(C)Nc1nc(C)cc(N[C@@H](CC(C)C)C(=O)NCCOc2ccccc2)n1 (some centres undefined) | 1710 nM
NC(=O)c1cccc(Nc2nccc(Nc3ccc(Oc4cccc5ccccc45)cc3)n2)c1 | 1150 nM
COc1cc(NCCCNC(=O)c2cc3c(Cl)cc(Cl)cc3[nH]2)nc2ccccc12 | 140 nM
COc1ccc(CCN2CCC(NCc3cccc(N(C)C)c3)CC2)cc1 | 1320 nM
O=C(Nc1cccc(-c2ccc(-c3nc4ccccc4[nH]3)s2)c1)c1ccncc1 | 780 nM
O=C(Cn1c2ccccc2c(=O)c2ccc(Cl)cc21)Nc1ccc(C(F)(F)F)cc1 | 530 nM
COc1ccc(CNCc2ccc(-c3ccc(-c4nc5c(C)cccc5[nH]4)s3)cc2)cc1 | 180 nM
O=C(NCCc1ccccc1)c1cc(-c2cccnc2)cnc1NCC1CC1 | 850 nM
CC(C)(C)c1ccc(-c2nc3c(ccc4nc(N)nc(N)c43)[nH]2)cc1 | 160 nM
